pKd, pKi: −log10 of the molar value. One block for each molecule: values may come before it. Numbered stars: 1 amine (or outer) side, 2 acyl side, 3 side chain; on linkers, the order of the positions; unused ones are H or OH. Bridge positions count the residues as written; N and C are the ends. Square brackets hold non-standard residues; d marks the D form. Peptide text beside a SMILES is read from it. I, II: the chains in the order shown. * marks the point of attachment. X2 = CN(C)c1ccc2c(c1)[Si](C)(C)C1=CC(=[N+](C)C)C=CC1=C2c1cc(C(=O)*)ccc1C(=O)O; X1 = O=C(O)c1cc(C(=O)*)ccc1-c1c2ccc(=O)cc-2oc2cc(O)ccc12; X3 = O=C(C[C@H](CCO)C(=O)[*:2])[C@H](Cc1ccc(O)cc1)N[*:1]; Palmitoyl = CCCCCCCCCCCCCCCC(=O)*; CH2COCH2 = O=C(C[*:1])C[*:2]; hSer = N[C@@H](CCO)C(=O)O; AEEA = NCCOCCOCC(=O)O
Key:
[1] = Drug degradation in C57BL/6J mouse at 6.2 mg/kg, iv measured at 21 to 22 mins by RP-HPLC analysis; type: ADME, organism-based; details: in vivo, time 21-22 min
[2] = Stability of the compound in human plasma assessed as half life […] by LC-MS analysis; type: ADME, cell-free
[3] = Plasma concentration in C57BL/6J mouse at 6.2 mg/kg, ip measured upto 24 hrs by RP-HPLC analysis; type: ADME, organism-based
[4] = Half life in C57BL/6J mouse at 6.2 mg/kg, iv by RP-HPLC analysis; type: ADME, organism-based; details: in vivo
[5] = Drug uptake in C57BL/6J mouse skin at 12.4 mg/kg, ip measured after 48 hrs by fluorescence imaging analysis; type: ADME, organism-based, Skin of body; details: in vivo
[6] = Half life in C57BL/6J mouse at 6.2 mg/kg, sc by RP-HPLC analysis; type: ADME, organism-based; details: in vivo
Kallikrein-5 = biological target: T1, Kallikrein-5 (Homo sapiens, UniProt Q9Y337); assay: Inhibition of C-terminal poly-His-tagged human recombinant KLK5 (30 to 293 residues) transfected in CHO cells assessed as inhibition constant using Boc-VPR-AMC as fluorogenic substrate incubated for 30 mins by fluorescence plate reader assay; type: cell-based
T1 sequence (Q9Y337 whole entry): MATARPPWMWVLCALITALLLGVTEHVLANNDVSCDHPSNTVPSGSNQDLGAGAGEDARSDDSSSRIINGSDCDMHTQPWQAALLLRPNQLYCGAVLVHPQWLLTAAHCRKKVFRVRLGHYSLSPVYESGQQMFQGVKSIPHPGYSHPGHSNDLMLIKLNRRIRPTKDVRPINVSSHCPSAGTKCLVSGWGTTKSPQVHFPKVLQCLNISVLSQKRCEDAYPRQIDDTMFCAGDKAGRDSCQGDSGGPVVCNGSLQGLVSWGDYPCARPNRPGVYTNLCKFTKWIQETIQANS

Albumin [7] = biological target: Albumin (Mus musculus, UniProt P07724); assay: Binding affinity to mouse serum albumin by fluorescence polarization assay
Albumin [8] = biological target: Albumin (Homo sapiens, UniProt P02768); assay: Binding affinity to human serum albumin by fluorescence polarization assay
Kallikrein-7 = Kallikrein-7 (Mus musculus, UniProt Q91VE3); assay: Inhibition of mouse KLK7 assessed as inhibition constant; design: species or system CHO
[9] = Drug degradation in C57BL/6J mouse at 6.2 mg/kg, sc measured after 18 to 28 mins by RP-HPLC analysis; type: ADME, organism-based; details: in vivo, time 18-28 min
[10] = Half life in C57BL/6J mouse at 6.2 mg/kg, ip by RP-HPLC analysis; type: ADME, organism-based; details: in vivo
[11] = Drug degradation in C57BL/6J mouse at 6.2 mg/kg, ip measured after 18 to 28 mins by RP-HPLC analysis; type: ADME, organism-based; details: in vivo, time 18-28 min
[12] = Drug uptake in C57BL/6J mouse skin epidermis at 6.2 mg/kg, iv measured after 8 hrs by fluorescence imaging analysis; type: ADME, organism-based; details: in vivo
[13] = Drug uptake in C57BL/6J mouse skin epidermis assessed as half life at 3.2 mg/kg, iv by fluorescence imaging analysis; type: ADME, organism-based; details: time 8 hrs
[14] = Drug uptake in C57BL/6J mouse skin epidermis assessed as half life at 6.4 mg/kg, ip measured after 8 hrs by DAPI staining based fluorescence microscope assay; type: ADME, organism-based; details: in vivo

Chain of Albumin (Homo sapiens, UniProt P02768) (P02768 whole entry): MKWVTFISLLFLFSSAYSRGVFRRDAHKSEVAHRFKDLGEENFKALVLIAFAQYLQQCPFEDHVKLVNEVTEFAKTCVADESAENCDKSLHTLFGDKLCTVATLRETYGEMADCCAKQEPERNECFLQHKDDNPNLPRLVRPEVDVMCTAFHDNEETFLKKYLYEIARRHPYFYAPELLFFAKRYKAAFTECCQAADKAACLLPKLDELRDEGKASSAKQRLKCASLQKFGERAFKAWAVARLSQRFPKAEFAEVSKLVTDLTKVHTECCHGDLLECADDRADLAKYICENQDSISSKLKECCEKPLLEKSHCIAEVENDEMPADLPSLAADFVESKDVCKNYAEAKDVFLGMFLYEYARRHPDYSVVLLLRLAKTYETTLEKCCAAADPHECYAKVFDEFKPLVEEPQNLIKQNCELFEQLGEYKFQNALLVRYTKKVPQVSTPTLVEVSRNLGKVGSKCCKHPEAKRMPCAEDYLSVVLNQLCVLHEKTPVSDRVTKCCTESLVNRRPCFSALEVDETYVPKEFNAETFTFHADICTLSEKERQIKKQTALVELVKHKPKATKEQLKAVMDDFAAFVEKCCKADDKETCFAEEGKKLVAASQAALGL
Chain of Kallikrein-7 (Q91VE3 whole entry): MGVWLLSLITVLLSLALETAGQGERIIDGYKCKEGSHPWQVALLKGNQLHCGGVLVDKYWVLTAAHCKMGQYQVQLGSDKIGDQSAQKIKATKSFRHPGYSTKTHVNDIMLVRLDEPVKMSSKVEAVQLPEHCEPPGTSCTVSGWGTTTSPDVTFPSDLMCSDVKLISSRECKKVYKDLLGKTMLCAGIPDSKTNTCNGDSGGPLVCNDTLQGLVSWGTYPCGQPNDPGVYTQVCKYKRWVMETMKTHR
Chain of Albumin (Mus musculus, UniProt P07724) (P07724 whole entry): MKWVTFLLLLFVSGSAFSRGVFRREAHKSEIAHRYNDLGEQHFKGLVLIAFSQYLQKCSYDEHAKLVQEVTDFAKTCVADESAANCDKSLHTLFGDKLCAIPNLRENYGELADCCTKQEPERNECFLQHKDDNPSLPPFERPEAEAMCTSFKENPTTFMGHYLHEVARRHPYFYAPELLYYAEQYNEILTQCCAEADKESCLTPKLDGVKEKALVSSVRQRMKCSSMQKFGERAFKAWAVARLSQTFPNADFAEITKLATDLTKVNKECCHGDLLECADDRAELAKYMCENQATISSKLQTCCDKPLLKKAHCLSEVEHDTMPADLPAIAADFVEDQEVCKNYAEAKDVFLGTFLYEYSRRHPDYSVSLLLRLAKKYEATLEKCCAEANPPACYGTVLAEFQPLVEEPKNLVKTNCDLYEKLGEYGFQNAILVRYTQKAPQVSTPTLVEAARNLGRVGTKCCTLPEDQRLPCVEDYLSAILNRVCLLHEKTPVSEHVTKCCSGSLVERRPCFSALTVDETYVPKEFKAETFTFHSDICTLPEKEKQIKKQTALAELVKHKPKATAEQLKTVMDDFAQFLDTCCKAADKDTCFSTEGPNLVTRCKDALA

Stability [1]: Unstable
half-life [2]: > 96 h
concentration at 24 h [3]: 20 µM
half-life [4]: 6.2 h
SMILES: CCCCCCCCCCCCCCCC(=O)NCCCC[C@H](NC(=O)[C@H](CCC(=O)O)NC(=O)[C@@H](Cc1ccc(O)cc1)NC(=O)[C@H](CCC(=O)O)NC(=O)COCCOCCNC(=O)c1ccc(-c2c3ccc(=O)cc-3oc3cc(O)ccc23)c(C(=O)O)c1)C(=O)N[C@@H](CCC(=O)O)C(=O)N[C@@H](Cc1ccc(O)cc1)C(=O)N[C@@H](CCC(=O)O)C(=O)NCCOCCOCC(=O)NCCCC[C@H](NC(=O)CNC(=O)[C@@H]1CSCC(=O)CSC[C@H](NC(=O)[C@@H]2CCCN2)C(=O)N[C@@H](CC(C)C)C(=O)N[C@@H](Cc2ccc(O)cc2)C(=O)N[C@@H](CCCC)C(=O)N[C@@H](C)C(=O)N[C@@H](CCCCNC(=N)N)C(=O)N1)C(=O)NCC(N)=O

Drug uptake [5]: Active
Stability [1]: Unstable
half-life [2]: 90 h
concentration at 24 h [3]: 20 µM
half-life [6]: 5.8 h
pKi (Kallikrein-5): 8.92
pKd (Albumin [7]): 5.15
pKd (Albumin [8]): 6.92
pKi (Kallikrein-7): 8.39
half-life [4]: 4.4 h
Stability [9]: Unstable
half-life [10]: 5.1 h
Stability [11]: Unstable
Drug uptake [12]: Active
SMILES: CCCCCCCCCCCCCCCC(=O)NCCCC[C@H](NC(=O)[C@H](CCC(=O)O)NC(=O)[C@H](Cc1ccc(O)cc1)NC(=O)[C@H](CCC(=O)O)NC(=O)COCCOCCNC(=O)c1ccc(-c2c3ccc(=O)cc-3oc3cc(O)ccc23)c(C(=O)O)c1)C(=O)N[C@@H](CCC(=O)O)C(=O)N[C@@H](Cc1ccc(O)cc1)C(=O)N[C@@H](CCC(=O)O)C(=O)NCCOCCOCC(=O)NCCCC[C@H](NC(=O)CNC(=O)[C@@H]1CSCC(=O)CSC[C@H](NC(=O)CN)C(=O)N[C@@H]([C@@H](C)O)C(=O)N[C@@H](CCCNC(=N)N)C(=O)N[C@@H](CCC(N)=O)C(=O)N[C@@H](Cc2ccc(O)cc2)C(=O)N2CCC[C@H]2C(=O)N1)C(=O)NCC(N)=O

half-life [13]: 0.64 h
SMILES: CCCCCCCCCCCCCCCC(=O)NCCCC[C@H](NC(=O)[C@@H](CCO)CC(=O)[C@H](Cc1ccc(O)cc1)NC(=O)[C@H](CCO)NC(=O)COCCOCCNC(=O)c1ccc(-c2c3ccc(=O)cc-3oc3cc(O)ccc23)c(C(=O)O)c1)C(=O)N[C@@H](CCO)C(=O)N[C@@H](Cc1ccc(O)cc1)C(=O)N[C@@H](CCC(=O)O)C(=O)NCCOCCOCC(=O)NCCCC[C@H](NC(=O)CNC(=O)[C@@H]1CSCC(=O)CSC[C@H](NC(=O)CNC(C)=O)C(=O)N[C@@H]([C@@H](C)O)C(=O)N[C@@H](CCCNC(=N)N)C(=O)N[C@@H](CCC(N)=O)C(=O)N[C@@H](Cc2ccc(O)cc2)C(=O)N2CCC[C@H]2C(=O)N1)C(=O)NCC(N)=O (I: Ac-GCTRQYPCGKG-NH2 / II: {X1-AEEA}-[hSer][X3]K(Palmitoyl)[hSer]YE[AEEA]; linker I:2-I:8 via CH2COCH2; amide I:10-II:C)

Drug uptake [14]: Active
SMILES: CCCCCCCCCCCCCCCC(=O)NCCCC[C@H](NC(=O)[C@@H](CCO)CC(=O)[C@H](Cc1ccc(O)cc1)NC(=O)[C@H](CCO)NC(=O)COCCOCCNC(=O)c1ccc(C(=O)O)c(C2=C3C=CC(=[N+](C)C)C=C3[Si](C)(C)c3cc(N(C)C)ccc32)c1)C(=O)N[C@@H](CCO)C(=O)N[C@@H](Cc1ccc(O)cc1)C(=O)N[C@@H](CCC(=O)O)C(=O)NCCOCCOCC(=O)NCCCC[C@H](NC(=O)CNC(=O)[C@@H]1CSCC(=O)CSC[C@H](NC(=O)CNC(C)=O)C(=O)N[C@@H]([C@@H](C)O)C(=O)N[C@@H](CCCNC(=N)N)C(=O)N[C@@H](CCC(N)=O)C(=O)N[C@@H](Cc2ccc(O)cc2)C(=O)N2CCC[C@H]2C(=O)N1)C(=O)NCC(N)=O (I: Ac-GCTRQYPCGKG-NH2 / II: {X2-AEEA}-[hSer][X3]K(Palmitoyl)[hSer]YE[AEEA]; linker I:2-I:8 via CH2COCH2; amide I:10-II:C)

— ChEMBL document CHEMBL5137037, “Phage Display Selected Cyclic Peptide Inhibitors of Kallikrein-Related Peptidases 5 and 7 and Their In Vivo Delivery to the Skin” (J Med Chem, 2022)
